Test: pH stability tests
Assay type: physicochemical
Method: This example provides the results of pH stability tests that were conducted on certain illustrative non-natural amino acids as an aid for predicting their properties for incorporation into non-natural amino acid polypeptides.

Measured: pH stability

COCCOC(=O)NCCO/N=C(\C)COc1ccccc1
38%: pH 8.0, 2 days
9%: pH 4.0, 7 days
2%: pH 4.0, 1 hour
8%: pH 4.0, 4 days | pH 4.0, 5 days | pH 4.0, 6 days
5%: pH 4.0, 1 day | pH 4.0, 2 days | pH 4.0, 3 days | pH 5.0, 1 day | pH 5.0, 2 days | pH 5.0, 3 days | pH 5.0, 4 days | pH 5.0, 5 days | pH 5.0, 6 days | pH 5.0, 7 days | pH 5.0, 10 days
15%: pH 7.4, 1 day | pH 7.4, 2 days | pH 7.4, 3 days | pH 7.4, 4 days | pH 7.4, 5 days | pH 7.4, 6 days | pH 7.4, 7 days | pH 7.4, 10 days
45%: pH 8.0, 4 days | pH 8.0, 5 days | pH 8.0, 6 days | pH 8.0, 7 days | pH 8.0, 10 days
40%: pH 8.0, 3 days
<1%: pH 5.0, 1 hour | pH 6.5, 1 hour | pH 6.5, 1 day | pH 6.5, 2 days | pH 6.5, 3 days | pH 6.5, 4 days | pH 6.5, 5 days | pH 6.5, 6 days | pH 6.5, 7 days | pH 6.5, 10 days | pH 7.4, 1 hour | pH 8.0, 1 hour
35%: pH 8.0, 1 day
10%: pH 4.0, 10 days

COCCOC(=O)NCCO/N=C(\C)CNC(=O)c1ccccc1
<1%: pH 5.0, 1 hour | pH 6.5, 1 hour | pH 6.5, 1 day | pH 6.5, 2 days | pH 7.4, 1 hour | pH 7.4, 1 day | pH 7.4, 2 days | pH 7.4, 3 days | pH 7.4, 4 days | pH 7.4, 5 days | pH 7.4, 6 days | pH 7.4, 7 days | pH 7.4, 10 days
5%: pH 4.0, 1 hour | pH 5.0, 3 days
3%: pH 5.0, 1 day | pH 5.0, 2 days
30%: pH 8.0, 2 days | pH 8.0, 3 days | pH 8.0, 4 days | pH 8.0, 5 days | pH 8.0, 6 days
24%: pH 8.0, 1 day
8%: pH 4.0, 2 days | pH 5.0, 7 days | pH 5.0, 10 days
7%: pH 4.0, 1 day | pH 5.0, 4 days | pH 5.0, 5 days | pH 5.0, 6 days
9%: pH 8.0, 1 hour
34%: pH 8.0, 10 days
33%: pH 8.0, 7 days
10%: pH 4.0, 3 days
2%: pH 6.5, 3 days | pH 6.5, 4 days | pH 6.5, 5 days | pH 6.5, 6 days | pH 6.5, 7 days | pH 6.5, 10 days
11%: pH 4.0, 4 days | pH 4.0, 5 days | pH 4.0, 6 days | pH 4.0, 7 days | pH 4.0, 10 days

COCCOC(=O)NCCO/N=C(\C)C(=O)c1ccccc1
<1%: pH 4.0, 1 hour | pH 4.0, 1 day | pH 4.0, 2 days | pH 4.0, 3 days | pH 4.0, 4 days | pH 4.0, 5 days | pH 4.0, 6 days | pH 4.0, 7 days | pH 4.0, 10 days | pH 5.0, 1 hour | pH 5.0, 1 day | pH 5.0, 2 days | pH 5.0, 3 days | pH 5.0, 4 days | pH 5.0, 5 days | pH 5.0, 6 days | pH 5.0, 7 days | pH 5.0, 10 days | pH 6.5, 1 hour | pH 6.5, 1 day | pH 6.5, 2 days | pH 6.5, 3 days | pH 6.5, 4 days | pH 6.5, 5 days | pH 6.5, 6 days | pH 6.5, 7 days | pH 6.5, 10 days | pH 7.4, 1 hour | pH 7.4, 1 day | pH 7.4, 2 days | pH 7.4, 3 days | pH 7.4, 4 days | pH 7.4, 5 days | pH 7.4, 6 days | pH 7.4, 7 days | pH 7.4, 10 days | pH 8.0, 1 hour | pH 8.0, 1 day | pH 8.0, 2 days | pH 8.0, 3 days | pH 8.0, 4 days | pH 8.0, 5 days | pH 8.0, 6 days | pH 8.0, 7 days | pH 8.0, 10 days

Reference: patent US8008456B2, “Compositions containing, methods involving, and uses of non-natural amino acids and polypeptides” (Ambrx, Inc., priority 2004, dated 2011)
